Data taken from patent US8586632B2, “Use of the irritating principal oleocanthal in olive oil, as well as structurally and functionally similar compounds” (Monell Chemical Senses Center, priority 2007, dated 2013).

How the values were obtained:
[1] = tested on: throat; assay: Throat irritation sensory test of synthetic oleocanthal in corn oil (two-alternative forced-choice); type: in vivo, human; settings: for correct trials, 2AFC throat irritation: ten subjects
Experimental: Testing was double-blind and each was exposed to three sets of two samples, one of which was added synthesized oleocanthal and the other served as the blank control. The task was to indicated which of the pair was more irritating. […] Importantly, the effect was dose dependent (FIG. 2 open triangles, dashed line). Ten subjects were tested with non-irritating commercial corn oils presented neat and mixed with either synthesized (−)-oleocanthal or the bitter agent sucrose octaacetate (SOA) (Sigma-Aldrich). […] (−)-Oleocanthal was tested at the highest concentration identified in the ten rated oils, 200 μg/ml, and at one half and whole log steps more dilute 63.25 and 20 μg/ml. SOA was added to the corn oil (4×10^−4, 1×10^−4, 5×10^−5 M) to intensity match the irritation of the three levels of (−)-oleocanthal. Subjects participated in two-alternative forced-choice (2AFC) trials (four trials at every concentration for each subject) and in intensity ratings sessions (four ratings per each oil). For the 2AFC trials subjects were presented with two 3.0 ml corn oil samples with matching intensities of SOA and (−)-oleocanthal in ascending order, and were required to sample oils as described above. While blind to stimulus position, subjects were asked two questions on each trial, “Which of the two oils was more irritating in the throat?” and “Which one was more bitter?” At the 20 μg/ml & 5×10^−5 M level most subjects reported on some trials that the same oil was both the more irritating and the more bitter of the two. […] Subjects performed at chance when selecting among two unadulterated corn oils, when the correct choice was randomly assigned prior to testing. […] The other two concentrations were correct 39/40 and 40/40 trials. For the intensity rating trials subjects were presented with all eight oils in ascending order, counterbalanced for stimulus order and asked to rate the throat irritation and bitterness of every oil on a general labeled magnitude scale.

[2] = tested on: cultured rat trigeminal neurons; assay: Intracellular calcium level in cultured rat trigeminal neurons (ratiometric Fura2 imaging); type: cell-based; set-up: key to TG Neuron Activation: The highest scale (+++) was assigned to the analogs that had approximately the same magnitude of response and excited the same number of neurons as oleocanthal; ++ responses were assigned to analogs that elicited intermediate responses to an intermediated number of cells; The + responses were weak but detectable and were observed in very few cells; No detectable response is indicated by 0; settings: for TG Neuron Activation: single concentration 5 micromolar, response relative to oleocanthal; for intracellular calcium response in trigeminal neurons (in words): cultured rat trigeminal neurons; for number of trigeminal neurons responding, as % of the response to oleocanthal: 5 micromolar oleocanthal = 100%
Experimental: Activity of synthetic oleocanthal analogs was assessed by measurement of the intracellular calcium level in cultured rat trigeminal neurons. Flavor or taste perception is made up of the sensory experience of three chemical senses: taste, smell, and chemical-induced irritation or pain. This third component is mainly determined by the impact of chemical stimuli that are transmitted to the brain via the trigeminal nerve.
Trigeminal ganglia were harvested from 1-3 day old Sprague-Dawley rat pups. Neurons were dissociated in Hanks Buffered Saline Solution (HBSS) with trypsin (0.0625%) for 15 minutes, collagenase (1 mg/ml) and DNase (0.1 mg/ml) for 45 minutes, and then were separated from myelin/debris using a 15/30/60% Percoll gradient. The neurons were plated on poly-1-lysine/laminin-coated coverslips in modified neurobasal medium supplemented with B27, 100 ng/ml Nerve Growth Factor (NGF) and kept at 37° C., 5% CO2. […] Intracellular calcium was measured ratiometrically using excitation at 340 and 380 nm and emission at 510 nm. Experiments were performed at 31-32° C. Neurons were stimulated by compounds in Ringers solution (pH=7.34) that flowed over the neurons for 15 sec.
Synthetic (−)oleocanthal and related analogs were dissolved in absolute ethanol and then added to Ringer's solution adjusted at pH=7.34 with a final ethanol concentration of less than 0.1%. The octanol-water partition coefficient (Log P), expressing compound lipophilicity, was calculated based on chemical structure with the Interactive Analysis Log P predictor website. In general, the higher the log P number, the greater the lipophilicity, and the greater the tendency of the compound to partition into the lipid phase of the cell membranes.
Oleocanthal activates rat trigeminal neurons; 5 microM of the olive oil irritant elicits a robust intracellular calcium increase in about 25 to about 35% of cultured rat trigeminal neurons (FIG. 6). Therefore, to assess the irritation potency of oleocanthal analogs and in order to avoid human consumption of unnatural compounds, activity was determined by measurement of the intracellular calcium level in cultured rat trigeminal neurons. […] Thus, both aldehyde groups, as well as unsaturation, are required to maintain full activity. […] Analog 11 is of particular interest. Like oleocanthal, analog 11 (or 4-DHPEA-EDA) is a secoiridoid derivative naturally present in extra virgin olive oil. Oleocanthal and 4-DHPEA-EDA formation occurs during olive oil production by enzymatic and chemical degradation of their respective precursors ligstroside and oleuropein, two glucosylated secoiridoids abundantly synthesized in unripe olives (FIG. 9). Oleocanthal and 4-DHPEA-EDA are structurally very similar—the sole difference being a second phenolic hydroxyl group in 4-DHPEA-EDA. […] For the experiment illustrated in FIG. 8, analog 13 (5, 10, 20 and 50 micomolar) was applied on a separate coverslip containing trigeminal neurons and activation was determined. This was followed by application of 5 micromolar oleocanthal to the same four coverslips. For each coverslip, the number of trigeminal neurons responding to oleocanthal was determined and defined as 100%. The number of trigeminal neurons responding to analog 13 corresponded to approximately 6% (5 micromolar analog 13), 25% (10 micromolar analog 13), 45% (20 micromolar analog 13) and 96% (50 micromolar analog 13) of the response to oleocanthal. For each coverslip, 18-20 trigeminal neurons were sensitive to oleocanthal. […] Analog 13 is very close in structure to oleocanthal (Table 2), lacking only a single carbon. […] While not wishing to be bound by any one theory, it is believed that the shorter chain of analog 13 pulls the rigid ring forward creating a steric obstruction to efficacious binding with the receptor.

[3] = tested on: oral irritation; settings: reported, Anke et al. 1991; cited from earlier work

SMILES | TG Neuron Activation [2] | intracellular calcium response in trigeminal neurons (in words) [2] | further results
C/C=C(/C=O)[C@@H](CC=O)CC(=O)OCCc1ccc(O)cc1 [Oleocanthal (−), 2-(4-hydroxyphenyl)ethyl, 4-formyl-3-(2-oxoethyl)-4-hexenoic acid ester] | +++ |  | correct trials, 2AFC throat irritation ([1]; 20 μg/ml in corn oil vs intensity-matched SOA): 24 out of 40; correct trials, 2AFC throat irritation ([1]; 63.25 μg/ml in corn oil vs intensity-matched SOA): 39/40; correct trials, 2AFC throat irritation ([1]; 200 μg/ml in corn oil vs intensity-matched SOA): 40/40; throat irritation (in words) ([1]; synthetic compound in corn oil): identical to oleocanthal isolated from premium olive oil; correct identification of the more irritating sample (2AFC) ([1]; three evaluators, three presentations each, corn oil, approx. twice the concentration in Falconaro olive oil, vs blank, p<0.01): 9 of 9; concentration near detection threshold levels in corn oil ([1]; throat irritation, 2AFC): ~20 µg/mL
C/C=C(/C=O)[C@@H](CC=O)CC(=O)OCCc1ccc(O)c(O)c1 [Analog 11, 4-DHPEA-EDA] | +++ |  | oral irritation (in words) [3]: very little oral irritation
C/C=C(/C=O)[C@@H](CCO)CC(=O)OCCc1ccc(O)cc1 [Analog 9] | + | did not elicit intracellular calcium increase | 
CC[C@@H](C=O)[C@@H](CC=O)CC(=O)OCCc1ccc(O)cc1 [Analog 12] | 0 | did not elicit intracellular calcium increase | 
C/C=C(/C=O)[C@@H](CC=O)CC(=O)OCCc1ccccc1O [Analog 3] | +++ |  | 
C/C=C(/CO)[C@@H](CCO)CC(=O)OCCc1ccc(O)cc1 [Analog 10] | 0 | did not elicit intracellular calcium increase | 
C/C=C(/C=O)[C@@H](CC=O)CC(=O)OCCCCC [Analog 7] | +++ |  | 
C/C=C(/C=O)[C@@H](CC=O)CC(=O)OCc1ccc(O)cc1 [Analog 13] | + | small responses | number of trigeminal neurons responding, as % of the response to oleocanthal ([2]; 5 micromolar analog 13): approximately 6%; number of trigeminal neurons responding, as % of the response to oleocanthal ([2]; 10 micromolar analog 13): about 25%; number of trigeminal neurons responding, as % of the response to oleocanthal ([2]; 20 micromolar analog 13): ~45%; number of trigeminal neurons responding, as % of the response to oleocanthal ([2]; 50 micromolar analog 13): ~96%; multiple of concentration needed to reach the potency of oleocanthal ([2]; trigeminal neuron stimulation, FIG. 8): approximately 10 times
C/C=C(/C=O)[C@@H](CC=O)CC(=O)OCCc1ccc(F)cc1 [Analog 2] | +++ |  | 
C/C=C(/C=O)[C@@H](CC=O)CC(=O)OCCCc1ccc(O)cc1 [Analog 8] | +++ |  | 
C/C=C(/C=O)[C@@H](CC=O)CC(=O)OC [Analog 6] | ++ |  | 
C/C=C(/C=O)[C@@H](CC=O)CC(=O)OCCc1ccccc1 [Analog 1] | +++ |  | 
C/C=C1\[C@H](CC(=O)OCCc2ccc(O)cc2)C[C@@H](O)[C@H]1O [Analog 5] | 0 | did not elicit intracellular calcium increase | 
C/C=C(/C=O)[C@@H](CC=O)CC(=O)OCCc1cccc(O)c1 [Analog 4] | +++ |  | 
